Laboratory results from ChEMBL document CHEMBL1140125, “Purity-activity relationships of natural products: the case of anti-TB active ursolic acid” (2008).
≈ marks a conversion by molar mass, not a printed value.

What was measured:
[1] = tested on: Mycobacterium tuberculosis; test: Antimycobacterial activity against Mycobacterium tuberculosis H37Rv ATCC 27294 after 7 days by microplate Alamar blue assay; type: functional; conditions: 168 h
[2] = tested on: Mycobacterium tuberculosis; test: Antimycobacterial activity against Mycobacterium tuberculosis H37Rv GFP after 7 days by green fluorescent microplate assay; type: functional; conditions: 168 h

| Structure (SMILES) | MIC [1] [µg/mL] | MIC [2] [µg/mL] |
| --- | --- | --- |
| CC1(C)CC[C@]2(C(=O)O)CC[C@]3(C)C(=CC[C@@H]4[C@@]5(C)CC[C@H](O)C(C)(C)[C@@H]5CC[C@]43C)[C@@H]2C1 [OLEANOLIC_ACID] | 100 (≈ 219 µM) |  |
| C=C(C)[C@@H]1CC[C@]2(C(=O)O)CC[C@]3(C)[C@H](CC[C@@H]4[C@@]5(C)CC[C@H](O)C(C)(C)[C@@H]5CC[C@]43C)[C@@H]12 [BETULINIC ACID] | > 128 |  |
| C[C@H]1[C@H](C)CC[C@]2(C(=O)O)CC[C@]3(C)C(=CC[C@@H]4[C@@]5(C)CC[C@H](O)C(C)(C)[C@@H]5CC[C@]43C)[C@H]12 [URSOLIC ACID] | > 256 | > 100 |
